Earlier results in patent US20190343774A1, “Compositions and Methods for Treating Neurologic Disorders” (PALUPA MEDICAL LTD., priority 2011, published 2019).

System: relapsing multiple sclerosis

Row | Substance | decrease of the possibility of disability accumulation (known) [%] | decrease on ARR (known) [%] | reduction of the annualized relapse rate (two-year trials)
1 | Tysabri®: monoclonal antibody; second-line MS drug | 43 | 68 | –
2 | glatiramer acetate | – | – | about one third
